Source: patent US4871571A, “Dietetic foodstuff containing low calorie bulking agent” (Novo Industri A/S, priority 1987, dated 1989)
Where two headings read alike, the source gives them in different places. One block for each molecule: values may come before it.

What was measured:
rats [1] = settings: rat, in vivo
Method: The control diet consisted of the following ingredients in the indicated ratios:
Four other diets were prepared by substituting for corn starch corresponding to 10% by weight of the entire control diet equal amounts respectively: of the bulking agent according to the invention; Neosugar; Polydextrose; and sucrose.
Groups comprising five rats in each group were fed with these diets, and the digestible dry matter was measured after a preliminary period of 10 days by differential gravimetric determination.

rats [2] = test: Weight increase of rats after an additional 6 weeks and digestibility calculated from it; format: in vivo; settings: after an additional 6 weeks, diet with 10% of substance
Method: Later, after an additional 6 weeks the weight increase was measured.
The percentual weight difference, y % of the bulking agent, taking the sucrose as a control with an assumed digestibility of 100%, thus can be calculated according to the equation: [formula]
As the bulking agent is only 10% of the diet, the digestibility, x %, can be calculated according to the equation: […]
The digestibility of Polydextose and Neosugar can be calculated in a similar manner. In the following table the calculated 6 weeks digestibilities of the bulking agents are shown.

[3] = 10% w/w aqueous solution
Method: After given storage periods of 2,6,24 hours the percentage decomposition was measured according to the formula [formula] wherein DP2^+ is the amount of oligomers with a DP of 2 or more.

Digestible dry matter of diet, mean (rats [1]): 94.1% | percentage decomposition ([3]; 2 h, pH 5): 0% | percentage decomposition ([3]; 2 h, pH 6): 0% | percentage decomposition ([3]; 2 h, pH 7): 0% | percentage decomposition ([3]; 5 h, pH 2): 97.2% | percentage decomposition ([3]; 5 h, pH 3): 31.8% | percentage decomposition ([3]; 5 h, pH 4): 5.8% | percentage decomposition ([3]; 5 h, pH 5): 0% | percentage decomposition ([3]; 5 h, pH 6): 0% | percentage decomposition ([3]; 5 h, pH 7): 0% | percentage decomposition ([3]; 6 h, pH 2): 15.0% | percentage decomposition ([3]; 6 h, pH 3): 3.7% | percentage decomposition ([3]; 6 h, pH 4): 0% | percentage decomposition ([3]; 6 h, pH 5): 0% | percentage decomposition ([3]; 6 h, pH 6): 0% | percentage decomposition ([3]; 6 h, pH 7): 0% | percentage decomposition ([3]; 24 h, pH 5): 0% | percentage decomposition ([3]; 24 h, pH 6): 0% | percentage decomposition ([3]; 24 h, pH 7): 0% | percentage decomposition ([3]; 48 h, pH 2): 100% | percentage decomposition ([3]; 48 h, pH 3): 77.2% | percentage decomposition ([3]; 48 h, pH 4): 10.8% | percentage decomposition ([3]; 48 h, pH 5): 1.6% | percentage decomposition ([3]; 48 h, pH 6): 0% | percentage decomposition ([3]; 48 h, pH 7): 0%
Molecule: OC[C@H]1O[C@@](CO)(O[C@H]2O[C@H](CO)[C@@H](O)[C@H](O)[C@H]2O)[C@@H](O)[C@@H]1O [Sucrose, sucrose]
Average weight increase (rats [2]): 220.11 g

Digestible dry matter of diet, mean (rats [1]): 91.8% | Digestible dry matter of the bulking agent, x % (rats [1]): 68%
Molecule: Polydextrose
